{"source": "patent US8022099B2", "about": "“N-benzyl pyrrolidine derivatives” (Hoffmann-La Roche Inc., priority 2008, dated 2011)"}
{"target": "T1, human NK3 receptor (Homo sapiens, UniProt P29371)", "T1 construct": "expressed in transfected cells; host or cells: HEK293 cells (transient expression), membrane preparation", "T1 sequence (P29371 1-465)": "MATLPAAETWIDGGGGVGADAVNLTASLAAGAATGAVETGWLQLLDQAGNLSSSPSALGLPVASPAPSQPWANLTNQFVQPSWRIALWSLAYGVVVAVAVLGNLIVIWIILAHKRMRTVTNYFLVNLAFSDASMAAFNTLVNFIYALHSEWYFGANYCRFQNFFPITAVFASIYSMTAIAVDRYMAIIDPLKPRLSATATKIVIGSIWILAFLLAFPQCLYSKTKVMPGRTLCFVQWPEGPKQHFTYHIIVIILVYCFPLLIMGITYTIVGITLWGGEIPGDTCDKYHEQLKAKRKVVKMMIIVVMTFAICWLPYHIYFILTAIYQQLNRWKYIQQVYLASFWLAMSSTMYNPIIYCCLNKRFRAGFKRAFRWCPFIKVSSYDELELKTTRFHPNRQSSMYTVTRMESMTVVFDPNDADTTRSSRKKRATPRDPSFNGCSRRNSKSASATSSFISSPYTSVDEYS", "experiment": "[3H]SR142801 competition binding assay", "settings": "hNK3 receptor binding, [3H]SR142801, membranes from HEK293 cells transiently expressing recombinant human NK3 receptor", "procedure": "[^3H]SR142801 Competition Binding Assay\nhNK3 receptor binding experiment were performed using [^3H]SR142801 (Catalog No. TRK1035, specific activity: 74.0 Ci/mmol, Amersham, GE Healthcare UK limited, Buckinghamshire, UK) and membrane isolated from HEK293 cells transiently expressing recombinant human NK3 receptor. After thawing, the membrane homogenates were centrifuged at 48,000×g for 10 min at 4° C., the pellets were resuspended in the 50 mM Tris-HCl, 4 mM MnCl2, 1 μM phosphoramidon, 0.1% BSA binding buffer at pH 7.4 to a final assay concentration of 5 μg protein/well. For inhibition experiments, membranes were incubated with [^3H]SR142801 at a concentration equal to KD value of radioligand and 10 concentrations of the inhibitory compound (0.0003-10 μM) (in a total reaction volume of 500 μl) for 75 min at room temperature (RT). At the end of the incubation, membranes were filtered onto unitfilter (96-well white microplate with bonded GF/C filter preincubated 1 h in 0.3% PEI+0.3% BSA, Packard BioScience, Meriden, Conn.) with a Filtermate 196 harvester (Packard BioScience) and washed 4 times with ice-cold 50 mM Tris-HCl, pH 7.4 buffer. Nonspecific binding was measured in the presence of 10 μM SB222200 for both radioligands. The radioactivity on the filter was counted (5 min) on a Packard Top-count microplate scintillation counter with quenching correction after addition of 45 μl of microscint 40 (Canberra Packard S. A., Zürich, Switzerland) and shaking for 1 h. Inhibition curves were fitted according to the Hill equation: y=100/(1+(x/IC50)^nH), where nH=slope factor using Excel-fit 4 software (Microsoft). IC50 values were derived from the inhibition curve and the affinity constant (Ki) values were calculated using the Cheng-Prussoff equation Ki=IC50/(1+[L]/KD) where [L] is the concentration of radioligand and KD is its dissociation constant at the receptor, derived from the saturation isotherm. All experiments were performed in duplicate and the mean±standard error (SEM) of the individual Ki values was calculated.", "units": {"Ki": "nM"}}
{"smiles": "CN(C)[C@@H]1CCN(C(=O)N2C[C@H](c3ccc(Cl)c(Cl)c3)[C@@H](N(C)Cc3ccc(C(F)(F)F)c(F)c3)C2)C1", "note": "(mixture of isomers) [Example 57, {(3SR,4RS)-3-(3,4-Dichloro-phenyl)-4-[(3-fluoro-4-trifluoromethyl-benzyl)-methyl-amino]-pyrrolidin-1-yl}-((R)-3-dimethylamino-pyrrolidin-1-yl)-methanone]", "Ki": 74.8}
{"smiles": "C[C@H]1CN(C(=O)N2C[C@H](c3ccc(Cl)c(Cl)c3)[C@@H](N(C)Cc3ccc(C(F)(F)F)c(F)c3)C2)CCN1S(C)(=O)=O", "note": "(mixture of isomers) [Example 59, {(3SR,4RS)-3-(3,4-Dichloro-phenyl)-4-[(3-fluoro-4-trifluoromethyl-benzyl)-methyl-amino]-pyrrolidin-1-yl}-((S)-4-methanesulfonyl-3-methyl-piperazin-1-yl)-methanone]", "Ki": 15.4}
{"smiles": "C[C@@H]1CN(C(=O)N2C[C@H](c3ccc(Cl)c(Cl)c3)[C@@H](N(C)Cc3ccc(C(F)(F)F)c(F)c3)C2)CCN1S(C)(=O)=O", "note": "(mixture of isomers) [Example 60, {(3SR,4RS)-3-(3,4-Dichloro-phenyl)-4-[(3-fluoro-4-trifluoromethyl-benzyl)-methyl-amino]-pyrrolidin-1-yl}-((R)-4-methanesulfonyl-3-methyl-piperazin-1-yl)-methanone]", "Ki": 3.6}
{"smiles": "CC(=O)N[C@H]1CCN(CC(=O)N2C[C@H](c3ccc(Cl)c(Cl)c3)[C@@H](N(C)Cc3ccc(C(F)(F)F)c(F)c3)C2)C1", "note": "(mixture of isomers) [Example 133, N-[(S)-1-(2-{(3SR,4RS)-3-(3,4-Dichloro-phenyl)-4-[(3-fluoro-4-trifluoromethyl-benzyl)-methyl-amino]-pyrrolidin-1-yl}-2-oxo-ethyl)-pyrrolidin-3-yl]-acetamide]", "Ki": 23.2}
{"smiles": "CC(=O)N[C@@H]1CCN(CC(=O)N2C[C@H](c3ccc(Cl)c(Cl)c3)[C@@H](N(C)Cc3ccc(C(F)(F)F)c(F)c3)C2)C1", "note": "(mixture of isomers) [Example 134, N-[(R)-1-(2-{(3SR,4RS)-3-(3,4-Dichloro-phenyl)-4-[(3-fluoro-4-trifluoromethyl-benzyl)-methyl-amino]-pyrrolidin-1-yl}-2-oxo-ethyl)-pyrrolidin-3-yl]-acetamide]", "Ki": 43.2}
{"smiles": "C[C@H]1CN(CC(=O)N2C[C@H](c3ccc(Cl)c(Cl)c3)[C@@H](N(C)Cc3ccc(C(F)(F)F)c(F)c3)C2)CCN1", "note": "(mixture of isomers) [Example 140, 1-{(3SR,4RS)-3-(3,4-Dichloro-phenyl)-4-[(3-fluoro-4-trifluoromethyl-benzyl)-methyl-amino]-pyrrolidin-1-yl}-2-((S)-3-methyl-piperazin-1-yl)-ethanone]", "Ki": 47.9}
{"smiles": "C[C@@H]1CN(CC(=O)N2C[C@H](c3ccc(Cl)c(Cl)c3)[C@@H](N(C)Cc3ccc(C(F)(F)F)c(F)c3)C2)CCN1", "note": "(mixture of isomers) [Example 141, 1-{(3SR,4RS)-3-(3,4-Dichloro-phenyl)-4-[(3-fluoro-4-trifluoromethyl-benzyl)-methyl-amino]-pyrrolidin-1-yl}-2-((R)-3-methyl-piperazin-1-yl)-ethanone]", "Ki": 59.7}
{"smiles": "CN(Cc1ccc(C(F)(F)F)c(F)c1)[C@H]1CN(C(=O)CN2C[C@@H]3C[C@@H]2CO3)C[C@@H]1c1ccc(Cl)c(Cl)c1", "note": "(mixture of isomers) [Example 148, 1-{(3SR,4RS)-3-(3,4-Dichloro-phenyl)-4-[(3-fluoro-4-trifluoromethyl-benzyl)-methyl-amino]-pyrrolidin-1-yl}-2-(1S,4R)-2-oxa-5-aza-bicyclo[2.2.1]hept-5-yl-ethanone]", "Ki": 25.1}
{"smiles": "CN(Cc1ccc(C(F)(F)F)c(F)c1)[C@H]1CN(C(=O)N2CCN(S(C)(=O)=O)CC2)C[C@@H]1c1ccccc1", "note": "(racemic) [Example 17, {(3RS,4SR)-3-[(3-Fluoro-4-trifluoromethyl-benzyl)-methyl-amino]-4-phenyl-pyrrolidin-1-yl}-(4-methanesulfonyl-piperazin-1-yl)-methanone]", "Ki": 90.9}
{"smiles": "CN(Cc1ccc(Cl)c(Cl)c1)[C@H]1CN(C(=O)N2CCN(S(C)(=O)=O)CC2)C[C@@H]1c1ccc(Cl)cc1", "note": "(racemic) [Example 19, {(3SR,4RS)-3-(4-Chloro-phenyl)-4-[(3,4-dichloro-benzyl)-methyl-amino]-pyrrolidin-1-yl}-(4-methanesulfonyl-piperazin-1-yl)-methanone]", "Ki": 80.7}
{"smiles": "CN(Cc1ccc(Cl)cc1)[C@H]1CN(C(=O)N2CCN(S(C)(=O)=O)CC2)C[C@@H]1c1ccc(Cl)cc1", "note": "(racemic) [Example 23, [(3RS,4SR)-3-[(4-Chloro-benzyl)-methyl-amino]-4-(4-chloro-phenyl)-pyrrolidin-1-yl]-(4-methanesulfonyl-piperazin-1-yl)-methanone]", "Ki": 91}
{"smiles": "CN(Cc1ccc(C#N)cc1)[C@H]1CN(C(=O)N2CCN(S(C)(=O)=O)CC2)C[C@@H]1c1ccc(Cl)cc1", "note": "(racemic) [Example 26, 4-({[(3RS,4SR)-4-(4-Chloro-phenyl)-1-(4-methanesulfonyl-piperazine-1-carbonyl)-pyrrolidin-3-yl]-methyl-amino}-methyl)-benzonitrile]", "Ki": 82.5}
{"smiles": "CN(Cc1ccc(-c2ccccc2)cc1)[C@H]1CN(C(=O)N2CCN(S(C)(=O)=O)CC2)C[C@@H]1c1ccc(Cl)cc1", "note": "(racemic) [Example 27, [(3RS,4SR)-3-(Biphenyl-4-ylmethyl-methyl-amino)-4-(4-chloro-phenyl)-pyrrolidin-1-yl]-(4-methanesulfonyl-piperazin-1-yl)-methanone]", "Ki": 78}
{"smiles": "CN(Cc1ccc(Cl)c(F)c1)[C@H]1CN(C(=O)N2CCN(S(C)(=O)=O)CC2)C[C@@H]1c1ccc(Cl)cc1", "note": "(racemic) [Example 29, [(3RS,4SR)-3-[(4-Chloro-3-fluoro-benzyl)-methyl-amino]-4-(4-chloro-phenyl)-pyrrolidin-1-yl]-(4-methanesulfonyl-piperazin-1-yl)-methanone]", "Ki": 69.9}
{"smiles": "CN(Cc1ccc(C(F)(F)F)c(F)c1)[C@H]1CN(C(=O)N2CCN(S(C)(=O)=O)CC2)C[C@@H]1c1ccc(Cl)cc1", "note": "(racemic) [Example 30, {(3SR,4RS)-3-(4-Chloro-phenyl)-4-[(3-fluoro-4-trifluoromethyl-benzyl)-methyl-amino]-pyrrolidin-1-yl}-(4-methanesulfonyl-piperazin-1-yl)-methanone]", "Ki": 28.4}
{"smiles": "CN(Cc1ccc(C(F)(F)F)c(F)c1)[C@H]1CN(C(=O)N2CCN(S(C)(=O)=O)CC2)C[C@@H]1c1ccc(Cl)c(Cl)c1", "note": "(racemic) [Example 31, {(3SR,4RS)-3-(3,4-Dichloro-phenyl)-4-[(3-fluoro-4-trifluoromethyl-benzyl)-methyl-amino]-pyrrolidin-1-yl}-(4-methanesulfonyl-piperazin-1-yl)-methanone]", "Ki": 8.3}
{"smiles": "CN(Cc1ccc(Cl)c(Cl)c1)[C@H]1CN(C(=O)N2CCN(S(C)(=O)=O)CC2)C[C@@H]1c1ccc(Cl)c(Cl)c1", "note": "(racemic) [Example 32]", "Ki": 33.3}
{"smiles": "CN(Cc1ccc(Cl)cc1)[C@H]1CN(C(=O)N2CCN(S(C)(=O)=O)CC2)C[C@@H]1c1ccc(Cl)c(Cl)c1", "note": "(racemic) [Example 33, [(3RS,4SR)-3-[(4-Chloro-benzyl)-methyl-amino]-4-(3,4-dichloro-phenyl)-pyrrolidin-1-yl]-(4-methanesulfonyl-piperazin-1-yl)-methanone]", "Ki": 33.6}
